# Measured values from patent US9315459B2, “Crystalline forms of 4-[2-(4-methylphenylsulfanyl)-phenyl] piperidine” (priority 2006, dated 2016).
# How the values were obtained:
# [1] = molecular target: T1, human-homomeric 5-HT3A receptors (Homo sapiens, UniProt P46098); assay: Voltage clamp in oocytes expressing human-homomeric 5-HT3A receptors; format: cell-based; settings: agonism at higher concentrations
# T1 sequence (P46098 24-478): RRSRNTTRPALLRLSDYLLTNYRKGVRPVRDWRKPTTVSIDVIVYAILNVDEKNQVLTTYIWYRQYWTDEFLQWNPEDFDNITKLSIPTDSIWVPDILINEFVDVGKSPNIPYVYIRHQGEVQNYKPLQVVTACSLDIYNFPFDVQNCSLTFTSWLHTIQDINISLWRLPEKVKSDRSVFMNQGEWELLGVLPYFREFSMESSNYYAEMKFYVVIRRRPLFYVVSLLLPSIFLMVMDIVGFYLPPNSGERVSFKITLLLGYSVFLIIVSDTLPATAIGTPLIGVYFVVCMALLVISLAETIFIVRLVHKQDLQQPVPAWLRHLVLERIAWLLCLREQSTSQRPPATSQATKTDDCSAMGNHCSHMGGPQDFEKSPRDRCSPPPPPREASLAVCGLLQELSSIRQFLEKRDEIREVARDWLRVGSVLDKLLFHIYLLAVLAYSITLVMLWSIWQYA
# Protocol: The experiments were carried out as follows. […] Oocytes avoid of the follicle layer were selected and incubated for 24 hours in Modified Barth's Saline buffer [88 mM NaCl, 1 mM KCl, 15 mM HEPES, 2.4 mM NaHCO3, 0.41 mM CaCl2, 0.82 mM MgSO4, 0.3 mM Ca(NO3)2] supplemented with 2 mM sodium pyruvate, 0.1 U/l penicillin and 0.1 μg/l streptomycin. Stage […] oocytes were identified and injected with 12-48 nl of nuclease free water containing 14-50 pg of cRNA coding for human 5-HT3A receptors receptors and incubated at 18° C. until they were used for electrophysiological recordings (1-7 days after injection). […] Cells were impaled with agar plugged 0.5-1 MΩ electrodes containing 3 M KCl and voltage clamped at −90 mV by a GeneClamp 500B amplifier. The oocytes were continuously perfused with Ringer buffer and the drugs were applied in the perfusate.
# C57/B6 mice = assay: Formalin model of neuropathic pain, time spent licking the injured paw; format: in vivo; settings: summary in words of table 4
# Protocol: The irritation caused by the formalin injection elicits a characteristic biphasic behavioural response, as quantified by the amount of time spent licking the injured paw. The first phase (˜0-10 minutes) represents direct chemical irritation and nociception, whereas the second (˜20-30 minutes) is thought to represent pain of neuropathic origin. The two phases are separated by a quiescent period in which behaviour returns to normal. Measuring the amount of time spent licking the injured paw in the two phases assesses the effectiveness of test compounds to reduce the painful stimuli. Eight C57/B6 mice (ca. 25 g) were tested per group. Table 4 below show the amount of time spent licking the injured paw in the two phases, i.e. 0-5 minutes and 20-30 minutes post formalin injection. The amount of compound administered is calculated as the free base.
# [2] = tested on: extracellular levels of acetylcholine; assay: Microdialysis, extracellular acetylcholine in prefrontal cortex and ventral hippocampus of freely-moving rats (Example 2G); format: in vivo, rat; settings: Sprague-Dawley rats, FIG. 25a+b
# Protocol: The experiment was designed to evaluate the effects of compounds of the present invention on extracellular levels of acetylcholine in the prefrontal cortex and ventral hippocampus of freely-moving rats.
# Male Sprague-Dawley rats, initially weighing 275-300 g, were used. The animals were housed under a 12-hr light/dark cycle under controlled conditions for regular in-door temperature (21±2° C.) and humidity (55±5%) with food and tap water available ad libitum.
# Rats were anaesthetised with hypnorm/dormicum (2 ml/kg) and intracerebral guide cannulas (CMA/12) were stereotaxically implanted into the hippocampus, aiming to position the dialysis probe tip in the ventral hippocampus (co-ordinates: 5.6 mm posterior to bregma, lateral −5.0 mm, 7.0 mm ventral to dura or in the frontal cortex (co-ordinates: 3.2 mm anterior to bregma; lateral, 0.8 mm; 4.0 mm ventral to dura). Anchor screws and acrylic cement were used for fixation of the guide cannulas. The body temperature of the animals was monitored by rectal probe and maintained at 37° C. The rats were allowed to recover from surgery for 2 days, housed singly in cages. On the day of the experiment a microdialysis probe (CMA/12, 0.5 mm diameter, 3 mm length) was inserted through the guide cannula.
# The probes were connected via a dual channel swivel to a microinjection pump. […]
smiles,measurement,setting,value
"Cc1ccc(Sc2ccccc2C2CCNCC2)cc1 [compound I, 4-[2-(4-methylphenylsulfanyl)-phenyl]piperidine]","Maximal current, % of the maximal current elicited by 5-HT",[1],70-80%
same,Effect in the first phase (direct chemical irritation and nociception),C57/B6 mice,little effect
same,Effect in the second phase (time spent licking paws),C57/B6 mice,clear and dose dependent decrease
same,Extracellular level of acetylcholine,[2],increase
